Experimental data published in patent publication US8242152B2, “Use of 4-[(4-thiazolyl)phenoxy]alkoxy-benzamidine derivatives for the prophylaxis and treatment of osteoporosis” (Dong Wha Pharmaceutical Co., Ltd., priority 2001, dated 2012).

Assays:
[1] = system: sciatic nerve neurectomized ddY mice; assay: Prophylactic effects in neurectomized ddY mouse model (immobilization osteoporosis); type: in vivo; conditions: for TBV (%): epiphyseal regions of right tibia; for Cbt (um): mid-shaft regions of right tibia; for histological profiles of epiphyseal regions: FIG. 10, Hematoxylin-Eosin; for TBV % compared to control group (in words) / cortical bone thickness compared to control group (in words): right tibia, Fosamax 1 mg/kg, DW1350MSA 10 and 50 mg/kg
Source text: The effects of a drug would be based on histomorphometric changes of trabecular bone and thickness of cortical bone in this model.
The objective of the present study is to observe the anti-osteoporotic potential of DW1350MSA, and administration of the drug was initiated 2 days after neurectomy for prophylaxis study.
Twenty-five female ddY mice (6-wk old upon receipt, SLC, Japan) were used after acclimatization for 7 days. Animals were allocated to 5 per polycarbonate cage in a temperature (20-25° C.) and humidity (30-35%) controlled room. Light:dark cycle was 12 hr:12 hr and feed (Samyang, Korea) and water were supplied free to access. 20 mice were neurectomized and 5 mice were sham operated. For the prophylaxis study, treatment was initiated 2 days after neurectomy and then each sample was administrated for 4 weeks.
DW1350MSA was dissolved in injectable distilled water and administered at a dosage volume of 10 ml/kg by oral gavage. The administered dose and schedule of these drugs are shown as Table 12.
3) Operation • A. Sham operation: The right side of the sciatic nerve was exposed by incision of skin and hip muscles, (about 1 cm) after that closed by skin suture. • B. neurectomy: After exposure of the right side of the sciatic nerve, about 1 mm of sciatic nerve was removed. After that closed by routine methods. • C. Operation was conducted under Ketamine hydrochloride (M.W.=256.8; 23076-35-9, ICN Biochemicals Inc., USA) and Xylazine hydrochloride (M.W.=274.19; 116-00512, Wako Pure Chemical Industries Ltd., Japan) anesthesia.
After that, embedded in paraffin, sectioned (3˜4 um) and stained with hematoxylin-eosin strain.
Mid-shaft cortical bone of tibia, and trabecular bone volume % of tibia were evaluated. In addition, histological profiles of epiphyseal regions of right tibia and femur were also observed. • A. Measurement of trabecular bone volume (TBV) Trabecular bone volume was calculated using automated image analysis (analySIS Image Processing; SIS, Germany) under magnification […] (×200) of microscopy (Zeiss, Germany) in the uniform area of epiphyseal regions of the right tibia and/or femur (growth plate regions were excluded). Trabecular bone volume was calculated as percentage levels. • B. Thickness of cortical bone (Cbt): Cortical bone thickness was detected in mid-shaft regions of right tibia and/or femur, and they were calculated using an automated image analyzer (analysis Image Processing; SIS, Germany) under magnification 200 (×200) of microscopy (Zeiss, Germany) at prepared histological samples. The thickness was detected as um levels. • C.
(§1) All data was calculated as mean±S.D. Statistical analyses was conducted using Mann-Whitney U-Wilcoxon Rank Sum W test (M-W test) with SPSS for Windows (Release 6.1.3., SPSS Inc., USA).

ovariectomized ddY mice = assay: Prophylactic effects in ovariectomized ddY mouse model (estrogen-deficient osteoporosis); type: in vivo; conditions: for histological profiles of epiphyseal regions of right tibia and femur: FIG. 11
Method: The effects of a drug would be based on histomorphometric changes of trabecular bone and thickness cortical bone in this model.
The objective of present study is to observe the prophylactic effect of DW1350MSA, and administration of drug was initiated 3 days after ovariectomy for prophylaxis study.
Twenty-five female ddY mice (6-wk old upon receipt, SLC, Japan) were used after acclimatization for 7 days. Animals were allocated 5 per polycarbonate cage in a temperature (20-25° C.) and humidity (30-35%) controlled room. Light:dark cycle was 12 hr:12 hr and feed (Samyang, Korea) and water were supplied free to access. 20 mice were ovariectomized and 5 mice were sham operated. For prophylaxis study, treatment was initiated 3 days after ovariectomy and then each sample was administrated for 6 weeks.
DW1350MSA was dissolved in injectable distilled water and administered at a dosage volume of 10 ml/kg by oral gavage.
3) Operation • A. Sham operation: Bilateral ovaries were exposed by incision of skin and abdominal muscles, (about 3 cm) after that closed by skin suture. • B. Ovariectomy: After exposure of bilateral ovaries, they were removed. After that closed by routine methods. • C. Operation was conduct under Ketamine hydrochloride (M.W.=256.8; 23076-35-9, ICN Biochemicals Inc., USA) and Xylazine hydrochloride (M.W.=274.19; 116-00512, Wako Pure Chemical Industries Ltd., Japan) anesthesia.
After that, embedded in paraffin, sectioned (3˜4 um) and stained with hematoxylin-eosin stain.
Histomorphometric changes of tibia and femur were evaluated. All histomorphometric indices including trabecular bone volume (TBV, %), thickness of trabecular bone (Tbt), trabecular bone number (Tbn), and length of trabeculer bone (Tbl) were calculated using automated image analysis (analysis Image Processing; SIS, Germany) under magnification 200 (×200) of microscopy (Zeiss, Germany) in the epiphyseal regions of right tibia and/or femur. In addition, cortical bone thickness (Cbt) was measured in mid-shaft region of right tibia and femur. […] Trabecular bone volume was calculated as percentage levels. • B. Measurement of histomorphometric index of trabecular bone: Thickness of trabecular bone (Tbt), trabecular bone number (Tbn), and length of trabecular bone (Tbl) were calculated using automated image analysis in the epiphyseal regions of right tibia and/or femur. Tbt and Tbl were calculated as um levels, and Tbn were calculated as number/whole sectional part of epiphyseal regions levels. • C. Thickness of cortical bone (Cbt): Cortical bone thickness was detected in mid-shaft regions of right tibia and/or femur, and they were calculated using automated image analyzer at prepared histological samples.
as §1

[2] = 10 mg/kg oral once a day for 4 weeks
[3] = 50 mg/kg oral once a day for 4 weeks
[4] = right femur, 10 mg/kg oral once a day for 6 weeks (F10, D10)
[5] = right femur, 50 mg/kg oral once a day for 6 weeks (D50)
[6] = right tibia, 10 mg/kg oral once a day for 6 weeks (F10, D10)
[7] = right tibia, 50 mg/kg oral once a day for 6 weeks (D50)
[8] = tibia and femur, DW1350MSA 10 and 50 mg/kg, Fosamax 10 mg/kg
[9] = 1 mg/kg oral once a day for 4 weeks

In the case of `CS(=O)(=O)O.Cc1nc(-c2ccc(OCCCCCOc3ccc(C(N)=NO)cc3)cc2)c(C(C)C)s1` [DW1350MSA], the “TBV (%)” value [1, 2] is reported as 25.75 ± 2.87 # %, the “Cbt (um)” value [1, 2] is reported as 171.36 ± 18.60 # um and the “TBV (%)” value [1, 3] is reported as 33.29 ± 4.96 %. For the same compound, the “Cbt (um)” value [1, 3] was 193.87 ± 12.50 um, the “histological profiles of epiphyseal regions” value [1] was “relatively well developed, especially in width and number, trabecular bone was detected” and the “TBV % compared to control group (in words)” value [1] was “significant dose-dependent (p<0.01) increase of trabecular bone volume %”. For the same compound, the “cortical bone thickness compared to control group (in words)” value [1] was “significant dose-dependent (p<0.01) increase of cortical bone thickness”, the “histological profiles of epiphyseal regions of right tibia and femur” value (ovariectomized ddY mice) was “relatively well developed, especially in width and length, trabecular bone was detected” and the “Cbt, cortical bone thickness” value (ovariectomized ddY mice; [4]) was 118.00 ± 16.79 um. The “Ocn, osteoclast cell number” value (ovariectomized ddY mice; [4]) was 5.00 ± 1.58 number, the “TBV, trabecular bone volume” value (ovariectomized ddY mice; [4]) was 36.97 ± 9.59 # % and the “Tbl, trabecular bone length” value (ovariectomized ddY mice; [4]) was 635.60 ± 190.76 um. For the same compound, the “Tbn, trabecular bone number” value (ovariectomized ddY mice; [4]) was 19.00 ± 1.58 number/epiphyseal, the “Tbt, trabecular bone thickness” value (ovariectomized ddY mice; [4]) was 48.60 ± 10.50 ## um and the “Cbt, cortical bone thickness” value (ovariectomized ddY mice; [5]) was 140.26 ± 33.16 um. For the same compound, the “Ocn, osteoclast cell number” value (ovariectomized ddY mice; [5]) was 4.40 ± 1.34 number, the “TBV, trabecular bone volume” value (ovariectomized ddY mice; [5]) was 41.91 ± 6.04 # % and the “Tbl, trabecular bone length” value (ovariectomized ddY mice; [5]) was 743.40 ± 187.00 um. The “Tbn, trabecular bone number” value (ovariectomized ddY mice; [5]) was 21.80 ± 1.92 number/epiphyseal, the “Tbt, trabecular bone thickness” value (ovariectomized ddY mice; [5]) was 68.00 ± 21.41 um and the “Cbt, cortical bone thickness” value (ovariectomized ddY mice; [6]) was 136.80 ± 26.58 # um. For the same compound, the “Ocn, osteoclast cell number” value (ovariectomized ddY mice; [6]) was 5.40 ± 1.52 # number, the “TBV, trabecular bone volume” value (ovariectomized ddY mice; [6]) was 35.20 ± 4.90 # % and the “Tbl, trabecular bone length” value (ovariectomized ddY mice; [6]) was 605.00 ± 160.44 ## um. The “Tbn, trabecular bone number” value (ovariectomized ddY mice; [6]) was 11.80 ± 3.11 # number/epiphyseal, the “Tbt, trabecular bone thickness” value (ovariectomized ddY mice; [6]) was 60.80 ± 13.20 # um and the “Cbt, cortical bone thickness” value (ovariectomized ddY mice; [7]) was 170.40 ± 44.73 um. For the same compound, the “Ocn, osteoclast cell number” value (ovariectomized ddY mice; [7]) was 3.60 ± 1.14 # number, the “TBV, trabecular bone volume” value (ovariectomized ddY mice; [7]) was 38.42 ± 4.67 # % and the “Tbl, trabecular bone length” value (ovariectomized ddY mice; [7]) was 679.20 ± 249.47 um. For the same compound, the “Tbn, trabecular bone number” value (ovariectomized ddY mice; [7]) was 11.80 ± 3.96 # number/epiphyseal, the “Tbt, trabecular bone thickness” value (ovariectomized ddY mice; [7]) was 112.60 ± 45.76 um and the “effect on decrease of Cbt induced by ovariectomy (summary in words)” value (ovariectomized ddY mice; [8]) was “significant effect to inhibit the decrease of Cbt induced by ovariectomy and the efficacy was higher than that of Fosamax”. The “effect on decrease of TBV induced by ovariectomy (summary in words)” value (ovariectomized ddY mice; [8]) was “some significance effect to inhibit the decrease of TBV induced by ovariectomy but the efficacy was somewhat lower than that of Fosamax”, the “effect on decrease of Tbl induced by ovariectomy (summary in words)” value (ovariectomized ddY mice; [8]) was “significant effect to inhibit the decrease of Tbl induced by ovariectomy and the efficacy was somewhat higher than that of Fosamax” and the “effect on decrease of Tbn induced by ovariectomy (summary in words)” value (ovariectomized ddY mice; [8]) was “significance effect to inhibit the decrease of Tbn induced by ovariectomy and the efficacy was somewhat lower than that of Fosamax”. For the same compound, the “effect on decrease of Tbt induced by ovariectomy (summary in words)” value (ovariectomized ddY mice; [8]) was “significance effect to inhibit the decrease of Tbt induced by ovariectomy and the efficacy was somewhat higher than that of Fosamax” and the “effect on increase of Ocn induced by ovariectomy (summary in words)” value (ovariectomized ddY mice; [8]) was “significant effect to inhibit the increase of Ocn induced by ovariectomy and the efficacy was higher than that of Fosamax”.

With `NCCCC(O)(P(=O)(O)O)P(=O)(O)O` [Fosamax, Alendronate] the “TBV (%)” value [1, 9] was 21.81 ± 4.35 # %, the “Cbt (um)” value [1, 9] was 125.75 ± 36.01 um and the “histological profiles of epiphyseal regions” value [1] was “more numerous extended trabecular bones were demonstrated compared to that of Control group”. For the same compound, the “TBV % compared to control group (in words)” value [1] was “significantly (p<0.01) increased compared to that of the control group”, the “cortical bone thickness compared to control group (in words)” value [1] was “significantly increased compared to that of the control group but significances were not demonstrated” and the “histological profiles of epiphyseal regions of right tibia and femur” value (ovariectomized ddY mice) was “more numerous extended trabecular bones were demonstrated compared to that of Control”. For the same compound, the “Cbt, cortical bone thickness” value (ovariectomized ddY mice; [4]) was 53.00 ± 23.82 um, the “TBV, trabecular bone volume” value (ovariectomized ddY mice; [4]) was 58.26 ± 5.77 % and the “Tbl, trabecular bone length” value (ovariectomized ddY mice; [4]) was 460.80 ± 260.64 ## um. The “Tbn, trabecular bone number” value (ovariectomized ddY mice; [4]) was 23.60 ± 2.97 # number/epiphyseal, the “Tbt, trabecular bone thickness” value (ovariectomized ddY mice; [4]) was 33.00 ± 12.45 um and the “Cbt, cortical bone thickness” value (ovariectomized ddY mice; [6]) was 59.80 ± 15.55 um. The “TBV, trabecular bone volume” value (ovariectomized ddY mice; [6]) was 47.56 ± 7.23 # %, the “Tbl, trabecular bone length” value (ovariectomized ddY mice; [6]) was 550.00 ± 74.98 ## um and the “Tbn, trabecular bone number” value (ovariectomized ddY mice; [6]) was 12.60 ± 4.98 number/epiphyseal. For the same compound, the “Tbt, trabecular bone thickness” value (ovariectomized ddY mice; [6]) was 83.20 ± 39.86 # um, the “effect on decrease of Cbt induced by ovariectomy (summary in words)” value (ovariectomized ddY mice; [8]) was “no favorable effect to changes of Cbt” and the “effect on increase of Ocn induced by ovariectomy (summary in words)” value (ovariectomized ddY mice; [8]) was “no favorable effect to changes of Ocn”.
